In experiment [1] the test system is lipoxygenase, human polynuclear cells. Put plainly: Inhibition of LTB4 production (lipoxygenase) by human polynuclear cells activated by calcium ionophore A 23187. The experiment is classed as cell-based. Particulars: concentration of 10^-5 M. On the procedure: The production of the principal prostanoid, resulting from lipoxygenase, produced by human polynuclear cells: leucotriene B4 (LTB4) is measured by a radioimmunological assay.

For experiment [2], the system named is cyclooxygenase of human granulocytes. Put plainly: Inhibition of PGE2 secretion (cyclooxygenase) by human granulocytes stimulated by calcium ionophore A23187. The experiment is classed as cell-based. The settings on record: concentration of 10^-5 M, A23187 5×10^-6 M, read-out: inhibition of the production of PGE2. The source says: The aim of this study is to measure the inhibiting activity of the compounds of the invention on the secretion of prostaglandin E2 (PGE2), one of the principal prostanoids produced by the cyclooxygenase of human granulocytes stimulated by the calcium ionophore A23187.
Human venous blood from blood donors who have not taken medicaments for 2 weeks is drawn into polypropylene tubes containing 1 volume of anti-coagulant (2.73% citric acid, 4.48% sodium citrate, 2% glucose) per 10 volumes of blood.
In the hour following taking the samples, 6% dextran is added to the blood (0.3 cm^3 /cm^3 of blood). After incubation for 30 min. at 37° C., the plasma rich in white corpuscles is centrifuged at a speed of 100 g for 5 min. at 4° C. […]
After centrifugation at a speed of 420 g for 30 min. at 4° C., the sediment rich in granulocytes is resuspended in 5 cm^3 of phosphate buffer and centrifuged at a speed of 100 g for 5 min. at 4° C. Finally, the granulocytes are counted and the density is adjusted to 3×10^6 cells/cm^3 of phosphate buffer.
The cells (3×10^6 cells/cm^3) are preincubated at 37° C. for 15 min. in the absence or presence of the products to be tested at the desired concentration. […] The base level is measured using cells without either the products to be tested or A23187. […]
The quantity of PGE2 produced is measured by a radioimmunological assay (RIA). […]

By inhibition is commonly meant the drop in the measured response relative to a control, in per cent. Turning to `CC(C)(Sc1cc(C(C)(C)C)c(O)c(C(C)(C)C)c1)Sc1cc(C(C)(C)C)c(O)c(C(C)(C)C)c1` [probucol], the inhibition at 10 µM in experiment [1] and in experiment [2] was around 40% throughout.

Values taken from patent US5382593A, “New 3-(hydroxybenzylidenyl)-indolin-2-ones” (Adir et Compagnie, priority 1992, dated 1995).
